Patent publication US8278452B2, “Heterocyclic compounds and compositions as c-kit and PDGFR kinase inhibitors” (IRM LLC, priority 2008, dated 2012)

What follows are compounds tested on Mo7e cells which endogenously express c-kit (assay: Mo7e assay: inhibition of SCF dependent proliferation (MTT)). Details: Table 1; SCF stimulated Mo7e cells, 48 hours, MTT.
Type: cell-based
Description: The compounds described herein are tested for inhibition of SCF dependent proliferation using Mo7e cells which endogenously express c-kit in a 96 well format. Two-fold serially diluted test compounds (Cmax=10 μM) are evaluated for their antiproliferative activity of Mo7e cells stimulated with human recombinant SCF. After 48 hours of incubation at 37° C., cell viability is measured by using a MTT colorimetric assay from Promega. IC50 values for compounds of the invention are quoted in table 1, supra.

Row | SMILES | IC50 [µM]
1 | Cc1cc2c(cn1)cc(-c1cc(Nc3noc(C4CCOCC4)n3)ccc1C)c(=O)n2C [Compound A33, 1,7-dimethyl-3-(2-methyl-5-{[5-(oxan-4-yl)-1,2,4-oxadiazol-3-yl]amino}phenyl)-1,2-dihydro-1,6-naphthyridin-2-one] | 0.444
2 | Cc1cc2c(cn1)cc(-c1cc(Nc3noc(C4(C)CC4)n3)ccc1C)c(=O)n2C [Compound A34, 1,7-dimethyl-3-(2-methyl-5-(5-(1-methylcyclopropyl)-1,2,4-oxadiazol-3-ylamino)phenyl)-1,6-naphthyridin-2(1H)-one] | 0.083
3 | Cc1cc2c(cn1)cc(-c1cc(Nc3noc(C(C)(C)CO)n3)ccc1C)c(=O)n2C [Compound A35, 3-(5-(5-(1-hydroxy-2-methylpropan-2-yl)-1,2,4-oxadiazol-3-ylamino)-2-methylphenyl)-1,7-dimethyl-1,6-naphthyridin-2(1H)-one] | 0.181
4 | Cc1cc2c(cn1)cc(-c1cc(Nc3noc(-c4ccc(O)cc4)n3)ccc1C)c(=O)n2C [Compound A36, 3-(5-{[5-(4-hydroxyphenyl)-1,2,4-oxadiazol-3-yl]amino}-2-methylphenyl)-1,7-dimethyl-1,2-dihydro-1,6-naphthyridin-2-one] | 0.375
5 | Cc1cc2c(cn1)cc(-c1cc(Nc3noc(-c4ccc(C#N)cc4)n3)ccc1C)c(=O)n2C [Compound A37, 4-(3-{[3-(1,7-dimethyl-2-oxo-1,2-dihydro-1,6-naphthyridin-3-yl)-4-methylphenyl]amino}-1,2,4-oxadiazol-5-yl)benzonitrile] | 0.057
6 | Cc1cc2c(cn1)cc(-c1cc(Nc3noc(-c4ccccc4C#N)n3)ccc1C)c(=O)n2C [Compound A38, 2-(3-{[3-(1,7-dimethyl-2-oxo-1,2-dihydro-1,6-naphthyridin-3-yl)-4-methylphenyl]amino}-1,2,4-oxadiazol-5-yl)benzonitrile] | 0.325
7 | Cc1cc2c(cn1)cc(-c1cc(Nc3noc(-c4cccc(O)c4)n3)ccc1C)c(=O)n2C [Compound A39, 3-(5-{[5-(3-hydroxyphenyl)-1,2,4-oxadiazol-3-yl]amino}-2-methylphenyl)-1,7-dimethyl-1,2-dihydro-1,6-naphthyridin-2-one] | 0.48
8 | Cc1cc2c(cn1)cc(-c1cc(Nc3noc(-c4cccc(C#N)c4)n3)ccc1C)c(=O)n2C [Compound A40, 3-(3-{[3-(1,7-dimethyl-2-oxo-1,2-dihydro-1,6-naphthyridin-3-yl)-4-methylphenyl]amino}-1,2,4-oxadiazol-5-yl)benzonitrile] | 0.299
9 | Cc1cc2c(cn1)cc(-c1cc(Nc3noc(-c4ccc(OC(F)(F)F)cc4)n3)ccc1C)c(=O)n2C [Compound A41, 1,7-dimethyl-3-[2-methyl-5-({5-[4-(trifluoromethoxy)phenyl]-1,2,4-oxadiazol-3-yl}amino)phenyl]-1,2-dihydro-1,6-naphthyridin-2-one] | 0.053
10 | Cc1cc2c(cn1)cc(-c1cc(Nc3noc(-c4cccc(O)n4)n3)ccc1C)c(=O)n2C [Compound A42, 3-(5-{[5-(6-hydroxypyridin-2-yl)-1,2,4-oxadiazol-3-yl]amino}-2-methylphenyl)-1,7-dimethyl-1,2-dihydro-1,6-naphthyridin-2-one] | 0.265
11 | Cc1cc2c(cn1)cc(-c1cc(Nc3noc(-c4ccc(CO)cc4)n3)ccc1C)c(=O)n2C [Compound A43, 3-[5-({5-[4-(hydroxymethyl)phenyl]-1,2,4-oxadiazol-3-yl}amino)-2-methylphenyl]-1,7-dimethyl-1,2-dihydro-1,6-naphthyridin-2-one] | 0.386
12 | Cc1cc2c(cn1)cc(-c1cc(Nc3noc(-c4csc(-c5cccnc5)n4)n3)ccc1C)c(=O)n2C [Compound A44, 1,7-dimethyl-3-[2-methyl-5-({5-[2-(pyridin-3-yl)-1,3-thiazol-4-yl]-1,2,4-oxadiazol-3-yl}amino)phenyl]-1,2-dihydro-1,6-naphthyridin-2-one] | 0.456
13 | Cc1cc2c(cn1)cc(-c1cc(Nc3noc(-c4nc(C)oc4C)n3)ccc1C)c(=O)n2C [Compound A45, 3-(5-{[5-(2,5-dimethyl-1,3-oxazol-4-yl)-1,2,4-oxadiazol-3-yl]amino}-2-methylphenyl)-1,7-dimethyl-1,2-dihydro-1,6-naphthyridin-2-one] | 0.263
14 | Cc1cc2c(cn1)cc(-c1cc(Nc3noc(-c4cc5cc(Cl)ccc5[nH]4)n3)ccc1C)c(=O)n2C [Compound A46, 3-(5-{[5-(5-chloro-1H-indol-2-yl)-1,2,4-oxadiazol-3-yl]amino}-2-methylphenyl)-1,7-dimethyl-1,2-dihydro-1,6-naphthyridin-2-one] | 0.338
15 | Cc1cc2c(cn1)cc(-c1cc(Nc3noc(-c4cccc(C)n4)n3)ccc1C)c(=O)n2C [Compound A47, 1,7-dimethyl-3-(2-methyl-5-{[5-(6-methylpyridin-2-yl)-1,2,4-oxadiazol-3-yl]amino}phenyl)-1,2-dihydro-1,6-naphthyridin-2-one] | 0.311
16 | Cc1cc2c(cn1)cc(-c1cc(Nc3noc(-c4ccc(C)nc4Cl)n3)ccc1C)c(=O)n2C [Compound A48, 3-(5-{[5-(2-chloro-6-methylpyridin-3-yl)-1,2,4-oxadiazol-3-yl]amino}-2-methylphenyl)-1,7-dimethyl-1,2-dihydro-1,6-naphthyridin-2-one] | 0.361

Row | SMILES | IC50 [µM]
17 | Cc1cc2c(cn1)cc(-c1cc(Nc3noc(-c4cccc(Cl)n4)n3)ccc1C)c(=O)n2C [Compound A49, 3-(5-{[5-(6-chloropyridin-2-yl)-1,2,4-oxadiazol-3-yl]amino}-2-methylphenyl)-1,7-dimethyl-1,2-dihydro-1,6-naphthyridin-2-one] | 0.333
18 | Cc1cc2c(cn1)cc(-c1cc(Nc3noc(-c4ccncc4)n3)ccc1C)c(=O)n2C [Compound A50, 1,7-dimethyl-3-(2-methyl-5-{[5-(pyridin-4-yl)-1,2,4-oxadiazol-3-yl]amino}phenyl)-1,2-dihydro-1,6-naphthyridin-2-one] | 0.271
19 | Cc1ccc(-c2nc(Nc3ccc(C)c(-c4cc5cnc(C)cc5n(C)c4=O)c3)no2)cn1 [Compound A51, 1,7-dimethyl-3-(2-methyl-5-(5-(6-methylpyridin-3-yl)-1,2,4-oxadiazol-3-ylamino)phenyl)-1,6-naphthyridin-2(1H)-one] | 0.119
20 | Cc1cc2c(cn1)cc(-c1cc(Nc3noc(-c4ccccn4)n3)ccc1C)c(=O)n2C [Compound A52, 1,7-dimethyl-3-(2-methyl-5-(5-(pyridin-2-yl)-1,2,4-oxadiazol-3-ylamino)phenyl)-1,6-naphthyridin-2(1H)-one] | 0.068
21 | Cc1cncc(-c2nc(Nc3ccc(C)c(-c4cc5cnc(C)cc5n(C)c4=O)c3)no2)c1 [Compound A53, 1,7-dimethyl-3-(2-methyl-5-{[5-(5-methylpyridin-3-yl)-1,2,4-oxadiazol-3-yl]amino}phenyl)-1,2-dihydro-1,6-naphthyridin-2-one] | 0.427
22 | Cc1cc2c(cn1)cc(-c1cc(Nc3noc(C(C)(F)F)n3)ccc1C)c(=O)n2C [Compound A54, 3-(5-(5-(1,1-difluoroethyl)-1,2,4-oxadiazol-3-ylamino)-2-methylphenyl)-1,7-dimethyl-1,6-naphthyridin-2(1H)-one] | 0.148
23 | Cc1cc2c(cn1)cc(-c1cc(Nc3noc(CC(C)O)n3)ccc1C)c(=O)n2C (stereo not shown) [Compound A55, 3-(5-{[5-(2-hydroxypropyl)-1,2,4-oxadiazol-3-yl]amino}-2-methylphenyl)-1,7-dimethyl-1,2-dihydro-1,6-naphthyridin-2-one] | 0.294
24 | Cc1cc2c(cn1)cc(-c1cc(Nc3noc(CC(C)(C)O)n3)ccc1C)c(=O)n2C [Compound A56, 3-(5-(5-(2-hydroxy-2-methylpropyl)-1,2,4-oxadiazol-3-ylamino)-2-methylphenyl)-1,7-dimethyl-1,6-naphthyridin-2(1H)-one] | 0.23
25 | Cc1cc2c(cn1)cc(-c1cc(Nc3noc(C4(O)CC4)n3)ccc1C)c(=O)n2C [Compound A57, 3-(5-(5-(1-hydroxycyclopropyl)-1,2,4-oxadiazol-3-ylamino)-2-methylphenyl)-1,7-dimethyl-1,6-naphthyridin-2(1H)-one] | 0.185
26 | Cc1cc2c(cn1)cc(-c1cc(Nc3noc(C4(C(F)(F)F)CC4)n3)ccc1C)c(=O)n2C [Compound A58, 1,7-dimethyl-3-(2-methyl-5-(5-(1-(trifluoromethyl)cyclopropyl)-1,2,4-oxadiazol-3-ylamino)phenyl)-1,6-naphthyridin-2(1H)-one] | 0.399
27 | Cc1cc2c(cn1)cc(-c1cc(Nc3noc(C4CCCOC4)n3)ccc1C)c(=O)n2C (stereo not shown) [Compound A59, 1,7-dimethyl-3-(2-methyl-5-{[5-(oxan-3-yl)-1,2,4-oxadiazol-3-yl]amino}phenyl)-1,2-dihydro-1,6-naphthyridin-2-one] | 0.233
28 | Cc1cc2c(cn1)cc(-c1cc(Nc3noc(-c4c(F)cccc4F)n3)ccc1C)c(=O)n2C [Compound A60, 3-(5-{[5-(2,6-difluorophenyl)-1,2,4-oxadiazol-3-yl]amino}-2-methylphenyl)-1,7-dimethyl-1,2-dihydro-1,6-naphthyridin-2-one] | 0.082
29 | Cc1cc2c(cn1)cc(-c1cc(Nc3noc(-c4ccc(F)cc4F)n3)ccc1C)c(=O)n2C [Compound A61, 3-(5-{[5-(2,4-difluorophenyl)-1,2,4-oxadiazol-3-yl]amino}-2-methylphenyl)-1,7-dimethyl-1,2-dihydro-1,6-naphthyridin-2-one] | 0.097
30 | Cc1cc2c(cn1)cc(-c1cc(Nc3noc(-c4ccc(F)c(F)c4)n3)ccc1C)c(=O)n2C [Compound A62, 3-(5-{[5-(3,4-difluorophenyl)-1,2,4-oxadiazol-3-yl]amino}-2-methylphenyl)-1,7-dimethyl-1,2-dihydro-1,6-naphthyridin-2-one] | 0.126
31 | Cc1cc2c(cn1)cc(-c1cc(Nc3noc(-c4ccc(C#N)cc4F)n3)ccc1C)c(=O)n2C [Compound A63, 4-(3-{[3-(1,7-dimethyl-2-oxo-1,2-dihydro-1,6-naphthyridin-3-yl)-4-methylphenyl]amino}-1,2,4-oxadiazol-5-yl)-3-fluorobenzonitrile] | 0.123
